Results as given in the NIST ThermoML archive (doi:10.1016/j.jct.2008.07.012).
± gives the expanded uncertainty stated by the source.

Test: molar enthalpy of vaporization or sublimation
Conditions: 298.15 K; Crystal; Calvet Calorimetry

**Q.** For O=[N+]([O-])c1ccccc1Cl [1-chloro-2-nitrobenzene], which molar enthalpy is on record?
**A.** The molar enthalpy was 19.3 ± 0.717 kcal/mol.

**Q.** With O=[N+]([O-])c1cccc(Cl)c1 [1-chloro-3-nitrobenzene] as the compound, how does the molar enthalpy read?
**A.** Its molar enthalpy is 19.7 ± 0.717 kcal/mol.

**Q.** Which molar enthalpy does the source give for O=[N+]([O-])c1ccc(Cl)cc1 [1-chloro-4-nitrobenzene] here?
**A.** The molar enthalpy was 18.2 ± 1 kcal/mol.
